Measurements as given in PubChem BioAssay AID1963826 (Molecular Pharmacology Branch, DTP, NCI, 2024).

Tested on: 926638-142-R-J1-PDC complex spheroid viability
Experiment: Anticancer human tumor 926638-142-R-J1-PDC patient-derived endometrial carcinoma cell line growth inhibition [POLQ]
Conditions: for IC50: curve of first compound; for viability, T/C: stronger effect = lower value
Procedure, shortened: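 Complex spheroid viability model combining PDC tumour cells with endothelial (HUVEC) and MSC stromal cells. Novobiocin, ART-558 or RP6685 were tested singly and in combination with standard and investigational anticancer drugs. Each was titrated in half-log steps from near clinical Cmax, or from 10 microM where Cmax was unknown.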

[1] = second compound 0.0316 µM, first compound 0.0316 µM
[2] = second compound 0.0316 µM, first compound 0.1 µM
[3] = second compound 0.0316 µM, first compound 0.316 µM
[4] = second compound 0.0316 µM, first compound 1 µM
[5] = second compound 0.0316 µM, first compound 3.16 µM
[6] = second compound 0.0316 µM, first compound 10 µM
[7] = second compound 0.1 µM, first compound 0.0316 µM
[8] = second compound 0.1 µM, first compound 0.1 µM
[9] = second compound 0.1 µM, first compound 0.316 µM
[10] = second compound 0.1 µM, first compound 1 µM
[11] = second compound 0.1 µM, first compound 3.16 µM
[12] = second compound 0.1 µM, first compound 10 µM
[13] = second compound 0.316 µM, first compound 0.0316 µM
[14] = second compound 0.316 µM, first compound 0.1 µM
[15] = second compound 0.316 µM, first compound 0.316 µM
[16] = second compound 0.316 µM, first compound 1 µM
[17] = second compound 0.316 µM, first compound 3.16 µM
[18] = second compound 0.316 µM, first compound 10 µM
[19] = second compound 1 µM, first compound 0.0316 µM
[20] = second compound 1 µM, first compound 0.1 µM
[21] = second compound 1 µM, first compound 0.316 µM
[22] = second compound 1 µM, first compound 1 µM
[23] = second compound 1 µM, first compound 3.16 µM
[24] = second compound 1 µM, first compound 10 µM
[25] = second compound 3.16 µM, first compound 0.0316 µM
[26] = second compound 3.16 µM, first compound 0.1 µM
[27] = second compound 3.16 µM, first compound 0.316 µM
[28] = second compound 3.16 µM, first compound 1 µM
[29] = second compound 3.16 µM, first compound 3.16 µM
[30] = second compound 3.16 µM, first compound 10 µM
[31] = second compound 10 µM, first compound 0.0316 µM
[32] = second compound 10 µM, first compound 0.1 µM
[33] = second compound 10 µM, first compound 0.316 µM
[34] = second compound 10 µM, first compound 1 µM
[35] = second compound 10 µM, first compound 3.16 µM
[36] = second compound 10 µM, first compound 10 µM
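Also: spheroids exposed to drugs for one week before readout.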
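For viability, T/C in this document: percent viability relative to DMSO vehicle control wells set as 100%.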

COc1cc(C2c3cc4c(cc3C(OC3OC5COC(C)OC5C(O)C3O)C3COC(=O)C23)OCO4)cc(OC)c1O (stereo unspecified) + COC1C(OC(N)=O)C(O)C(Oc2ccc3c(O)c(NC(=O)c4ccc(O)c(CC=C(C)C)c4)c(=O)oc3c2C)OC1(C)C
IC50 (second compound 0.0316 µM): > 10 µM
IC50 (second compound 0.1 µM): > 10 µM
IC50 (second compound 0.316 µM): > 10 µM
IC50 (second compound 1 µM): > 10 µM
IC50 (second compound 3.16 µM): > 10 µM
IC50 (second compound 10 µM): > 10 µM
viability, T/C [1]: 86.8%
viability, T/C [2]: 79%
viability, T/C [3]: 78.1%
viability, T/C [4]: 78.4%
viability, T/C [5]: 70.1%
viability, T/C [6]: 56.2%
viability, T/C [7]: 95%
viability, T/C [8]: 80.6%
viability, T/C [9]: 83.1%
viability, T/C [10]: 62.7%
viability, T/C [11]: 57.5%
viability, T/C [12]: 57.7%
viability, T/C [13]: 88.2%
viability, T/C [14]: 98.7%
viability, T/C [15]: 75.7%
viability, T/C [16]: 79.3%
viability, T/C [17]: 66%
viability, T/C [18]: 64.6%
viability, T/C [19]: 84.1%
viability, T/C [20]: 85.8%
viability, T/C [21]: 79%
viability, T/C [22]: 61.6%
viability, T/C [23]: 70.9%
viability, T/C [24]: 55.6%
viability, T/C [25]: 82%
viability, T/C [26]: 88.4%
viability, T/C [27]: 83.2%
viability, T/C [28]: 80.2%
viability, T/C [29]: 71.2%
viability, T/C [30]: 60.9%
viability, T/C [31]: 81.8%
viability, T/C [32]: 75.3%
viability, T/C [33]: 78.1%
viability, T/C [34]: 74.9%
viability, T/C [35]: 68.8%
viability, T/C [36]: 55%

COc1cccc2c1C(=O)c1c(O)c3c(c(O)c1C2=O)CC(O)(C(=O)CO)CC3OC1CC(N)C(O)C(C)O1 (stereo unspecified) + COC1C(OC(N)=O)C(O)C(Oc2ccc3c(O)c(NC(=O)c4ccc(O)c(CC=C(C)C)c4)c(=O)oc3c2C)OC1(C)C
IC50 (second compound 0.0316 µM): 0.0941 µM
IC50 (second compound 0.1 µM): 0.167 µM
IC50 (second compound 0.316 µM): 0.129 µM
IC50 (second compound 1 µM): 0.128 µM
IC50 (second compound 3.16 µM): 0.133 µM
IC50 (second compound 10 µM): 0.154 µM
viability, T/C [1]: 73.2%
viability, T/C [2]: 48.3%
viability, T/C [3]: 17.7%
viability, T/C [4]: 1.39%
viability, T/C [5]: 0.18%
viability, T/C [6]: 0.28%
viability, T/C [7]: 81%
viability, T/C [8]: 74.1%
viability, T/C [9]: 19.9%
viability, T/C [10]: 3.56%
viability, T/C [11]: 0.18%
viability, T/C [12]: 0.25%
viability, T/C [13]: 81.6%
viability, T/C [14]: 59.9%
viability, T/C [15]: 15.9%
viability, T/C [16]: 1.61%
viability, T/C [17]: 0.22%
viability, T/C [18]: 0.17%
viability, T/C [19]: 72.9%
viability, T/C [20]: 59.8%
viability, T/C [21]: 14%
viability, T/C [22]: 2.68%
viability, T/C [23]: 0.17%
viability, T/C [24]: 0.21%
viability, T/C [25]: 74.3%
viability, T/C [26]: 61.1%
viability, T/C [27]: 16.2%
viability, T/C [28]: 3.97%
viability, T/C [29]: 0.21%
viability, T/C [30]: 0.21%
viability, T/C [31]: 90.7%
viability, T/C [32]: 69%
viability, T/C [33]: 18%
viability, T/C [34]: 2.23%
viability, T/C [35]: 0.25%
viability, T/C [36]: 0.26%

O=c1[nH]cc(F)c(=O)[nH]1 + COC1C(OC(N)=O)C(O)C(Oc2ccc3c(O)c(NC(=O)c4ccc(O)c(CC=C(C)C)c4)c(=O)oc3c2C)OC1(C)C
IC50 (second compound 0.0316 µM): > 10 µM
IC50 (second compound 0.1 µM): > 10 µM
IC50 (second compound 0.316 µM): > 10 µM
IC50 (second compound 1 µM): > 10 µM
IC50 (second compound 3.16 µM): > 10 µM
IC50 (second compound 10 µM): > 10 µM
viability, T/C [1]: 124%
viability, T/C [2]: 110%
viability, T/C [3]: 94.1%
viability, T/C [4]: 101%
viability, T/C [5]: 98.4%
viability, T/C [6]: 94.1%
viability, T/C [7]: 106%
viability, T/C [8]: 90.8%
viability, T/C [9]: 104%
viability, T/C [10]: 90.4%
viability, T/C [11]: 103%
viability, T/C [12]: 71%
viability, T/C [13]: 125%
viability, T/C [14]: 105%
viability, T/C [15]: 87.3%
viability, T/C [16]: 84.1%
viability, T/C [17]: 98.2%
viability, T/C [18]: 82.7%
viability, T/C [19]: 98.3%
viability, T/C [20]: 106%
viability, T/C [21]: 90.1%
viability, T/C [22]: 79.6%
viability, T/C [23]: 79.3%
viability, T/C [24]: 75.4%
viability, T/C [25]: 102%
viability, T/C [26]: 85.9%
viability, T/C [27]: 90.6%
viability, T/C [28]: 86.9%
viability, T/C [29]: 79.5%
viability, T/C [30]: 83.6%
viability, T/C [31]: 104%
viability, T/C [32]: 96.6%
viability, T/C [33]: 77.1%
viability, T/C [34]: 86.6%
viability, T/C [35]: 114%
viability, T/C [36]: 83.4%
